Experimental data: patent US20040103451A1, “Abscisic acid 8'-and 7'-hydroxylase genes and related sequences from plants” (priority 2003, published 2004)

What was measured:
ABA 8′-hydroxylase [1] = details: cited from earlier work; for inhibition of induction of ABA 8′-hydroxylase: corn suspension cells
ABA 8′-hydroxylase [2] = details: microsomal enzyme, BMS corn suspension cells; cited from earlier work
CYP72A7 = assay: biotransformation of (+)-ABA by yeast expressing CYP72A7, LC/MS/MS of culture media; assay type: cell-based, Arabidopsis thaliana
Protocol: FIG. 6. Heterologous expression of an Arabidopsis P450 ABA 7′-hydroxylase activity in yeast. The CYP72A7 cDNA from Arabidopsis thaliana was inserted into the pYeDP60 vector, transformed into the WAT11 yeast strain (but not the WAT21 yeast strain) and analyzed for the ability to metabolize (+)-ABA. The biotransformation of (+)-ABA to 7′-hydroxyABA was assessed by High Performance Liquid Chromatography—Mass Spectrometry. (HPLC/MS/MS) 7′-hydroxyABA was excreted into the media. Measured activity was limited by access of enzyme to the substrate (ABA).
For yeast expression, the cDNAs were transferred into the expression vector pYeDP60 (Pompon D., et al., 1996, Method Enzymol 272: 51-64), and purified recombinant plasmid was subsequently transformed into WAT 11 and WAT 21 yeast strains over-expressing the Arabidopsis cytochrome P450 reductases, CTR1 and CTR2, respectively (Pompon et al., ibid). […]
For expression analysis the cultures were grown for two days on SC minus URA agar plates at 30° C. […] One to 10 mls of the sample was loaded onto an Oasis HLB column (Waters) to purify ABA and ABA-metabolites and the resulting eluant was analyzed by LC/MS/MS.

pJK6-29 mRNA = assay type: cell-based, corn
Protocol: Total RNA isolated from non-ABA-induced and ABA-induced (9 hr at […] (+)-ABA) BMS corn suspension was probed with radiolabeled pJK6-29. […] Further Northern blot analysis was carried out. In this experiment, the time course of gene expression was compared with the appearance of ABA 8'-hydroxylase activity. ABA 8'-hydroxylase activity was determined by in vitro assay (see Krochko J. E., et al., 1998, Plant Physiol 118: 849-860) with isolated microsomes isolated from BMS corn suspension cells at defined periods after the addition of 200 μM (+)-ABA. Enzyme activity was assayed at 0 (control), 3, 6, 9, 12, 16, 20.5, 25.5 and 28.5 hours after the addition of (+)-ABA. Total RNA was extracted from duplicate tissue samples and expression of the P450 clone, pJK6-29, was determined by Northern blot analysis. The time-course of mRNA induction for pJK6-29 is consistent with the appearance of ABA 8'-hydroxylase activity (FIG. 5).

| Compound | inhibition of induction of ABA 8′-hydroxylase (ABA 8′-hydroxylase [1]) | inhibition of ABA 8′-hydroxylase (ABA 8′-hydroxylase [2]) | other results |
| --- | --- | --- | --- |
| Nc1ncnc2c1ncn2[C@@H]1O[C@H](CO)C[C@H]1O [cordecypin] | inhibited | – | – |
| C[C@@H]1C[C@@H]([C@H](O)CC2CC(=O)NC(=O)C2)C(=O)[C@@H](C)C1 [cycloheximide] | inhibited | – | – |
| oxidized cytochrome c: inhibitor of ABA 8′-hydroxylase | – | inhibited | – |
| CC1=CC(=O)CC(C)(C)[C@@]1(O)/C=C/C(C)=C\C(=O)O [(+)-ABA, S-(+)-abscisic acid] | – | – | time of peak ABA 8′-hydroxylase activity after addition of (+)-ABA (ABA 8′-hydroxylase [1]; BMS corn suspension culture medium): 16 h; induction of ABA 8′-hydroxylase (ABA 8′-hydroxylase [1]; maize BMS suspension cultured cells): induced; ABA hydroxylase activity (CYP72A7; WAT21 yeast strain): did not support any ABA hydroxylase activity; ABA 7′-hydroxylase activity (conversion to 7′-hydroxyABA) (CYP72A7; pYeDP60.Ath30-2 in WAT11 yeast strain, (+)-ABA 20 μM to 50 μM, 24 hours): ABA 7′-hydroxylase activity was demonstrated; regulation of pJK6-29 P450 mRNA expression (pJK6-29 mRNA): upregulated |
| Clc1ccc(N2N=N[C@@H]3[C@@H]4C[C@@H]([C@H]5N=N[C@@H]45)[C@@H]32)cc1 [tetcyclacis] | – | inhibited | – |
| [C-]#[O+] [CO] | – | inhibited | – |
